Measurements: patent US11578083B2, “Pyrimidinium compounds and their mixtures for combating animal pests” (BASF SE, priority 2017, dated 2023)

Legend:
Assay type in all cases: in vivo
[1] = test system: Greenhouse Whitefly (Trialeurodes vaporariorum); test: Greenhouse Whitefly, egg plant leaf disk (table 5, mixtures); conditions: solo application I-R-1, use rate 2 ppm
Procedure: For evaluating control of Greenhouse Whitefly (Trialeurodes vaporariorum) the test unit consisted of 96-well-microtiter plates containing a leaf disk of egg plant leaf disk with white fly eggs. The compounds or mixtures were formulated using a solution containing 75% water and 25% DMSO. Concentrations of formulated compounds or mixtures were sprayed onto the […] at 2.5 μl, using a custom built micro atomizer, at two replications.
(§1) For experimental mixtures in these tests identical volumes of both mixing partners at the desired concentrations respectively, were mixed together.
(§2) After application, microtiter plates were incubated at 23±1° C., 65±5% RH for 6 days. Mortality of hatched crawlers was then visually assessed.

[2] = test system: Greenhouse Whitefly (Trialeurodes vaporariorum); test: Test 11 Greenhouse Whitefly, egg plant leaf disk (mixtures)
Procedure: For evaluating control of Greenhouse Whitefly (Trialeurodes vaporariorum) the test unit consisted of 96-well-microtiter plates containing a leaf disk of egg plant leaf disk with white fly eggs.
(§3) The compounds or mixtures were formulated using a solution containing 75% water and 25% DMSO. Different concentrations of formulated compounds or mixtures were sprayed onto the insect diet at 2.5 μl, using a custom built micro atomizer, at two replications.
as §1, §2

[3] = test system: vetch aphid (Megoura viciae); test: Test 1 vetch aphid, leaf disks (mixtures); conditions: Table 1, solo application I-R-1, use rate 20 ppm
Text: Synergism can be described as an interaction where the combined effect of two or more compounds is greater than the sum of the individual effects of each of the compounds. The presence of a synergistic effect in terms of percent control, between two mixing partners (X and Y) can be calculated using the Colby equation (Colby, S. R., 1967, Calculating Synergistic and Antagonistic Responses in Herbicide Combinations, Weeds, 15, 20-22):
When the observed combined control effect is greater than the expected combined control effect (E), then the combined effect is synergistic.
The analysis of synergism or antagonism between the mixtures or compositions was determined using Colby's equation.
(§4) For evaluating control of vetch aphid (Megoura viciae) through contact or systemic means the test unit consisted of 24-well-microtiter plates containing broad bean leaf disks.
The compounds or mixtures were formulated using a solution containing 75% water and 25% DMSO. Concentrations of formulated compounds or mixtures were sprayed onto the leaf disks at 2.5 μl, using a custom built micro atomizer, at two replications. […]
After application, the leaf disks were air-dried and 5-8 adult aphids placed on the leaf disks inside the microtiter plate wells. […] Aphid mortality and fecundity was then visually assessed.

[4] = test system: Chilo suppressalis; test: B.3a Rice stem borer vial bioassay; conditions: 72 h
Procedure: Field-collected rice straws were washed with tap water and cut for a certain of length. Straws were air dried before placing individually in vials (=replicate, 3×). About 125 μl test solution was sprayed per vial. Treated rice straws in vials were air dried under the laboratory hood. After air-drying, each straw was inoculated with 10 newly-emerged (0-day old) stem borer larvae. Vials were then covered. Set-up was kept in a holding room maintained at 27° C. and 65% RH for three days. At 3 days after inoculation, rice straws were manually dissected for larval mortality assessment. The data (Table C) show activity against two species of rice stem borers.

[5] = test system: Chilo suppressalis; test: B.3c Rice striped stem borer, drench application; conditions: Chilo suppressalis neonates, Dose 10 mg, 14 DAT
Text: The test solution was poured onto the soil of each potted rice plant (=replicate) with five tillers each pot. After drench application, treated plants were transferred inside the screenhouse for three days prior to stemborer inoculation inside the laboratory. Three days after drench application, 5 to 6-day old egg masses of CHILSU were used for inoculation. All stemborer-infested potted rice plants were transferred inside the screenhouse 1 day after inoculation until the final assessment. […] Whole plant damage was assessed before cutting each hill at the basal portion for tiller dissection. Each dissected tiller was inspected looking for dead (if possible) and alive stemborer larvae.

[6] = test system: yellow fever mosquito (Aedes aegypti); conditions: Table 12; Yellow Fever Mosquito; solo application I-R-1, use rate 10 ppm
Procedure: For evaluating control of yellow fever mosquito (Aedes aegypti) the test unit consisted of 96-well-microtiter plates containing 200 μl of tap water per well and 5-15 freshly hatched A. aegypti larvae.
as §3, §1
After application, microtiter plates were incubated at 28±1° C., 80±5% RH for 2 days. Larval mortality was then visually assessed.

[7] = test system: tobacco budworm (Heliothis virescens); test: Test 4 tobacco budworm, insect diet with eggs (mixtures)
Procedure: For evaluating control of tobacco budworm (Heliothis virescens) the test unit consisted of 96-well-microtiter plates containing an insect diet and 15-25 H. virescens eggs.
The compounds or mixtures were formulated using a solution containing 75% water and 25% DMSO. Concentrations of formulated compounds or mixtures were sprayed onto the insect diet at 10 μl, using a custom built micro atomizer, at two replications.
as §1
After application, microtiter plates were incubated at 28±1° C., 80±5% RH for 5 days. Egg and larval mortality was then visually assessed.

[8] = test system: vetch aphid (Megoura viciae); test: Test 7 vetch aphid, leaf disks (mixtures)
Procedure: as §4
The compounds or mixtures were formulated using a solution containing 75% water and 25% DMSO. Concentrations of formulated compounds or mixtures were sprayed onto the leaf disks at 2.5 μl, using a custom built micro atomizer, at two replications.
as §1
After application, the leaf disks were air-dried and 5-8 adult aphids placed on the leaf disks inside the microtiter plate wells. The aphids were then allowed to suck on the treated leaf disks and incubated at 23±1° C., 50±5% RH for 5 days. Aphid mortality and fecundity was then visually assessed.

[9] = test system: Rice brown plant hopper (Nilaparvata lugens); test: B.2 Rice brown plant hopper, sprayed rice seedlings; conditions: 72 h
Procedure: B.2 Rice Brown Plant Hopper (Nilaparvata lugens):
(§5) Rice seedlings are cleaned and washed 24 hours before spraying. The active compounds are formulated in 50:50 acetone:water (vol:vol) and 0.1% vol/vol surfactant (EL 620) is added. Potted rice seedlings are sprayed with 5 ml test solution, air dried, placed in cages and inoculated with 10 adults. Treated rice plants are kept at about 28-29° C. and relative humidity of about 50-60%. Percent mortality is recorded after 72 hours.

[10] = test system: Rice green leafhopper (Nephotettix virescens); test: B.1 Rice green leafhopper, sprayed rice seedlings; conditions: 72 h
Procedure: B.1 Rice Green Leafhopper (Nephotettix virescens):
as §5, with “(vol:vol),” for “(vol:vol)”

[11] = test system: Chilo suppressalis; test: B.3b Rice striped stem borer, foliar spraying
Procedure: All three pots (=replicates) of four to five-week old potted rice per treatment were simultaneously sprayed with 12 mL test solution. After spray application, plants were air dried in the laboratory before inoculation. After air-drying, 5 to 6-day old egg masses of CHILSU were used for inoculation. All stem borer-infested potted rice plants were transferred inside the screenhouse 1 day after inoculation until the final assessment. […] Whole plant damage was assessed before cutting each hill at the basal portion for tiller dissection. Each dissected tiller was inspected looking for dead (if possible) and alive stemborer larvae.

`C[n+]1c([O-])c(-c2ccccc2)c(=O)n2c1SC[C@@H]2c1cnc(Cl)s1` [I-R-1, (3R)-3-(2-chlorothiazol-5-yl)-8-methyl-7-oxo-6-phenyl-2,3-dihydrothiazolo[3,2-a]pyrimidin-4-ium-5-olate] showed an Average control % [1] of 0%, an Average control % ([2]; Table 11.1, solo application I-R-1, use rate 50 ppm) of 25% and an Average control % ([2]; Table 11.2, solo application I-R-1, use rate 10 ppm) of 0%. For the same compound, the Average control % [3] was 0%, the mortality at 300 ppm [4] was 83% and the “Feeding damage (%)” value [5] was 7%. For the same compound, the Average control % [6] was 0%, the Average control % ([7]; Table 4.1, solo application I-R-1, use rate 10 ppm) was 0% and the Average control % ([7]; Table 4.2, solo application I-R-1, use rate 0.4 ppm) was 0%. The Average control % ([8]; Table 7.1, solo application I-R-1, use rate 2 ppm) was 25%, the Average control % ([8]; Table 7.2, solo application I-R-1, use rate 2 ppm) was 25% and the mortality at 1 ppm [9] was 90%. The mortality at 1 ppm [10] was 100%, the “Feeding damage (%)” value ([11]; Chilo suppressalis neonates, foliar spraying, Dose 200 ppm, 14 DAT) was 7% and the mortality at 200 ppm ([11]; Chilo suppressalis, foliar, 336 h) was 99%.
